In PubChem BioAssay AID248 (DTP/NCI, 2004):
Values joined by “and” are separate entries in the source; they are usually repeats but may differ in a detail not shown here. Equal values may be shown once. Toxic doses and inconclusive results are not listed. No stated cut-off is given here; in the data, active means T/C of 150% or more; inactive means T/C below 125%.

System: L1210 leukemia ip in BDF1 mice, survival T/C
Experiment: NCI In Vivo Anticancer Drug Screen. Data for tumor model L1210 Leukemia (intraperitoneal) in B6D2F1 (BDF1) mice
Details: endpoint: mean survival time, higher = longer survival
Outline: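 Read-out is survival time, reported as the treated-group measurement over the vehicle-control measurement.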

[1] = dose: 100.0 mg/kg/injection, schedule: Q01DX001 (ip), vehicle: Klucel (hydroxypropylcellulose) (HPC)
[2] = dose: 100.0 mg/kg/injection, schedule: Q04DX003 (ip), vehicle: Klucel (hydroxypropylcellulose) (HPC)
[3] = dose: 200.0 mg/kg/injection, schedule: Q01DX001 (ip), vehicle: Klucel (hydroxypropylcellulose) (HPC)
[4] = dose: 200.0 mg/kg/injection, schedule: Q04DX003 (ip), vehicle: Klucel (hydroxypropylcellulose) (HPC)
[5] = dose: 100.0 mg/kg/injection, schedule: Q04DX003 (ip), vehicle: saline
[6] = dose: 25.0 mg/kg/injection, schedule: Q01DX009 (ip), vehicle: Klucel (hydroxypropylcellulose) (HPC)
[7] = dose: 50.0 mg/kg/injection, schedule: Q01DX009 (ip), vehicle: Klucel (hydroxypropylcellulose) (HPC)
[8] = dose: 400.0 mg/kg/injection, schedule: Q04DX003 (ip), vehicle: Klucel (hydroxypropylcellulose) (HPC)
[9] = dose: 100.0 mg/kg/injection, schedule: Q01DX009 (ip), vehicle: Klucel (hydroxypropylcellulose) (HPC)
[10] = dose: 10.0 mg/kg/injection, schedule: Q01DX001 (ip), vehicle: saline
[11] = dose: 100.0 mg/kg/injection, schedule: Q04DX002 (ip), vehicle: Klucel (hydroxypropylcellulose) (HPC)
[12] = dose: 200.0 mg/kg/injection, schedule: Q04DX002 (ip), vehicle: Klucel (hydroxypropylcellulose) (HPC)
[13] = dose: 50.0 mg/kg/injection, schedule: Q01DX001 (ip), vehicle: saline
[14] = dose: 100.0 mg/kg/injection, schedule: Q01DX001 (ip), vehicle: saline
[15] = dose: 200.0 mg/kg/injection, schedule: Q01DX001 (ip), vehicle: saline
[16] = dose: 400.0 mg/kg/injection, schedule: Q01DX001 (ip), vehicle: saline
[17] = dose: 100.0 mg/kg/injection, schedule: Q01DX001 (ip), vehicle: carboxymethylcellulose (CMC)
[18] = dose: 200.0 mg/kg/injection, schedule: Q01DX001 (ip), vehicle: carboxymethylcellulose (CMC)
[19] = dose: 400.0 mg/kg/injection, schedule: Q01DX001 (ip), vehicle: carboxymethylcellulose (CMC)
[20] = dose: 400.0 mg/kg/injection, schedule: Q01DX001 (ip), vehicle: Klucel (hydroxypropylcellulose) (HPC)

Measured: T/C

O=C1OCC/C1=C\c1cccc(/C=C2\CCOC2=O)c1
inactive: dose: 25.0 mg/kg/injection, schedule: Q04DX002 (ip), vehicle: saline with Tween-80 92 % of control | dose: 50.0 mg/kg/injection, schedule: Q04DX002 (ip), vehicle: saline with Tween-80 95 % of control | dose: 100.0 mg/kg/injection, schedule: Q04DX002 (ip), vehicle: saline with Tween-80 106 % of control | dose: 200.0 mg/kg/injection, schedule: Q04DX002 (ip), vehicle: saline with Tween-80 100 % of control

Cc1ccc(S(=O)(=O)OC2C3OC(=S)OCC3OC3OC(C)(C)OC32)cc1 (stereo unspecified)
inactive: dose: 25.0 mg/kg/injection, schedule: Q04DX002 (ip), vehicle: saline 104 % of control | dose: 50.0 mg/kg/injection, schedule: Q04DX002 (ip), vehicle: saline 107 % of control | dose: 100.0 mg/kg/injection, schedule: Q04DX002 (ip), vehicle: saline 107 % of control

Cc1nc(SCc2ccccc2)nc(N)c1CN
inactive: dose: 50.0 mg/kg/injection, schedule: Q04DX003 (ip), vehicle: Klucel (hydroxypropylcellulose) (HPC) 113 % of control | [1] 93 % of control | [2] 100 % of control | [3] 98 % of control | [4] 104 % of control

C#CCOC1CCCCO1 (stereo unspecified)
inactive: [5] 104 % of control

COc1ccc(NC(=O)Nc2cc(Cl)ccc2OC)cc1
inactive: dose: 12.5 mg/kg/injection, schedule: Q01DX009 (ip), vehicle: Klucel (hydroxypropylcellulose) (HPC) 90 % of control | [6] 93 % of control | [7] 93 % of control | [2] 99 % of control | [4] 92 % of control | [8] 90 % of control

Cc1cc(=O)oc2cc(OC(=O)Nc3cccc(Cl)c3Cl)ccc12
inactive: [6] 89 % of control | [7] 93 % of control | [9] 98 % of control

CC(C)OP(=S)(S)OC(C)C
inactive: [5] 112 % of control | dose: 200.0 mg/kg/injection, schedule: Q04DX003 (ip), vehicle: saline 96 % of control | dose: 400.0 mg/kg/injection, schedule: Q04DX003 (ip), vehicle: saline 102 % of control

C[NH-].C[NH-].C[NH-].C[NH-].[Cl][Rh][Cl]
inactive: [9] 97 % of control | [2] 86 % of control | [4] 94 % of control | [8] 92 % of control

Cc1cc2oc(=O)c(Cl)c(Cl)c2c(C)c1Cl
inactive: [10] 105 % of control | dose: 10.0 mg/kg/injection, schedule: Q01DX009 (ip), vehicle: Klucel (hydroxypropylcellulose) (HPC) 101 % of control | dose: 10.0 mg/kg/injection, schedule: Q04DX003 (ip), vehicle: Klucel (hydroxypropylcellulose) (HPC) 86 % of control | dose: 20.0 mg/kg/injection, schedule: Q01DX001 (ip), vehicle: saline 111 % of control | dose: 20.0 mg/kg/injection, schedule: Q01DX009 (ip), vehicle: Klucel (hydroxypropylcellulose) (HPC) 101 % of control | dose: 20.0 mg/kg/injection, schedule: Q04DX003 (ip), vehicle: Klucel (hydroxypropylcellulose) (HPC) 93 % of control

CCN(C(=O)Nc1ccc(Cl)cc1)c1ccccc1
inactive: dose: 100.0 mg/kg/injection, schedule: Q04DX003 (ip), vehicle: saline with Tween-80 96 % of control | dose: 200.0 mg/kg/injection, schedule: Q04DX003 (ip), vehicle: saline with Tween-80 95 % of control | dose: 400.0 mg/kg/injection, schedule: Q04DX003 (ip), vehicle: saline with Tween-80 86 % of control

Oc1cc2ccc3c(c2cc1O)CCc1cn[nH]c1-3
inactive: dose: 100.0 mg/kg/injection, schedule: Q01DX001 (ip), vehicle: saline with Tween-80 92 % of control | dose: 400.0 mg/kg/injection, schedule: Q01DX001 (ip), vehicle: saline with Tween-80 92 % of control

NP(=O)(CCl)NC12CC3CC(CC(C3)C1)C2 (stereo unspecified)
inactive: [7] 86 % of control | [9] 95 % of control | dose: 200.0 mg/kg/injection, schedule: Q01DX009 (ip), vehicle: Klucel (hydroxypropylcellulose) (HPC) 93 % of control

CCC1(/C(C)=C/C(C)C)C(=O)NC(=O)NC1=O
inactive: dose: 5.0 mg/kg/injection, schedule: Q01DX001 (ip), vehicle: saline 96 % of control | [10] 101 % of control

COC1OC2COc3ccccc3OC2C2C1N2C(C)=O (stereo unspecified)
inactive: [11] 113 % of control | [12] 98 % of control

NC(CC1C=CC=CC1)C(=O)O (stereo unspecified)
inactive: [13] 108 % of control | [14] 102 % of control | [15] 98 % of control | [16] 96 % of control

COC(=O)C1=C(C(=O)OC)[N+](C)(C)N=C1[O-]
inactive: dose: 25.0 mg/kg/injection, schedule: Q04DX003 (ip), vehicle: saline 110 % of control | dose: 50.0 mg/kg/injection, schedule: Q04DX003 (ip), vehicle: saline 104 % of control | [5] 95 % of control and 101 % of control

CNC(=O)OC(C)CN(c1ccccc1)c1ccccc1 (stereo unspecified)
inactive: [13] 98 % of control | [14] 104 % of control | [15] 98 % of control | [16] 102 % of control

Cc1cc([N+](=O)[O-])ccc1I
inactive: dose: 50.0 mg/kg/injection, schedule: Q01DX001 (ip), vehicle: carboxymethylcellulose (CMC) 101 % of control | [17] 95 % of control | [18] 95 % of control | [19] 90 % of control

O=c1[nH]c(CCCc2ccccc2)c(Br)c(=O)[nH]1
inactive: [11] 100 % of control | [12] 100 % of control | dose: 400.0 mg/kg/injection, schedule: Q04DX002 (ip), vehicle: Klucel (hydroxypropylcellulose) (HPC) 92 % of control

COc1ccc(-c2ccc(CC(N)=O)cc2)cc1Cl
inactive: [17] 91 % of control | [18] 94 % of control | [19] 89 % of control

CCOc1ccc(NP(=O)(Oc2c(F)c(F)c(F)c(F)c2F)N(CCCl)CCCl)cc1 (stereo unspecified)
inactive: dose: 62.5 mg/kg/injection, schedule: Q01DX001 (ip), vehicle: other 95 % of control | dose: 125.0 mg/kg/injection, schedule: Q01DX001 (ip), vehicle: other 90 % of control | dose: 250.0 mg/kg/injection, schedule: Q01DX001 (ip), vehicle: other 89 % of control | dose: 500.0 mg/kg/injection, schedule: Q01DX001 (ip), vehicle: other 87 % of control

CCOC(=O)c1c(C)cn2c1OC(C)CC2(C)C (stereo unspecified)
inactive: [1] 105 % of control | [3] 94 % of control | [20] 96 % of control

O=C(O)c1ccsc1Cc1cccs1
inactive: [1] 101 % of control | dose: 100.0 mg/kg/injection, schedule: Q01DX009 (ip), vehicle: saline with Tween-80 97 % of control and 89 % of control | [3] 92 % of control | dose: 200.0 mg/kg/injection, schedule: Q01DX009 (ip), vehicle: saline with Tween-80 96 % of control and 100 % of control | [20] 106 % of control | dose: 400.0 mg/kg/injection, schedule: Q01DX009 (ip), vehicle: saline with Tween-80 93 % of control and 89 % of control
